The experiment concerns the target EGFR (UniProt P00533).
Chain of EGFR (P00533 whole entry, looked up): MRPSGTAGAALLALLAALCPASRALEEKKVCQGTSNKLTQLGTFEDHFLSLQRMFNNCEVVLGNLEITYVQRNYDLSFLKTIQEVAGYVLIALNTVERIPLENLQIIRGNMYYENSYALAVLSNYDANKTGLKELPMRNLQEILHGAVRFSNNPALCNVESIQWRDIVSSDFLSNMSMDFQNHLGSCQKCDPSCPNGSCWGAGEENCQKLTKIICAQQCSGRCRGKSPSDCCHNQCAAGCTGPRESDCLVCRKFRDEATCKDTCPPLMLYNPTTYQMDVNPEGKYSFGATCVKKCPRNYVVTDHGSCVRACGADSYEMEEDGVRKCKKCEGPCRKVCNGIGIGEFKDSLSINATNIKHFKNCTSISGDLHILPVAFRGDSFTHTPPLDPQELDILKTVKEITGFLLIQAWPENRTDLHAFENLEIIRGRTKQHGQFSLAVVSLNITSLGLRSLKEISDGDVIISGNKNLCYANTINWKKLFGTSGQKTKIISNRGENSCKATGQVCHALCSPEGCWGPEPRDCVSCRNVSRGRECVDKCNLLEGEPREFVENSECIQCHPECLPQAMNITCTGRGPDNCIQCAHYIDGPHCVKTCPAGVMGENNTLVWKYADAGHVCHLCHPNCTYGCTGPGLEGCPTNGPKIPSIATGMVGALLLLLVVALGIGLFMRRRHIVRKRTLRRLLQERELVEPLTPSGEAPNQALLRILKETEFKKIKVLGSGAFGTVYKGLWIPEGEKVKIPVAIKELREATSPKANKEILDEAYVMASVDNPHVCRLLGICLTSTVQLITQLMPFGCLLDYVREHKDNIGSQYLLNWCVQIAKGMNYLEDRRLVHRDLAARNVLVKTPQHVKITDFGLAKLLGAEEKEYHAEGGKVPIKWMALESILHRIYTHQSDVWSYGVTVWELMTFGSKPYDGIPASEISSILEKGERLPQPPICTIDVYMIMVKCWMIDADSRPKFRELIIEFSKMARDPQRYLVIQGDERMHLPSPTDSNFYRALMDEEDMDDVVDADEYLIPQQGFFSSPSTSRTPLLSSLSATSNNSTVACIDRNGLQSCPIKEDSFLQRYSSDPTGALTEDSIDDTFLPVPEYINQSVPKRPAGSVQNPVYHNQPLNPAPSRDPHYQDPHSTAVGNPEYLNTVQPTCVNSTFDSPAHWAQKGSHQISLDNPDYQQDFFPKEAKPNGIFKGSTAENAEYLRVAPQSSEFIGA
By IC50 is commonly meant the point on the concentration scale where inhibition reaches its midpoint. Higher therefore signals weaker potency. On to `COc1cc2ncnc(Nc3cccc(C#N)c3)c2cc1OC`, for which the IC50 was determined as 10000 nM. That is a double-digit micromolar value.
In turn, `COc1cc2ncnc(NC3CCCCC3)c2cc1OC` returned an IC50 of under 1000 nM.
The molecule `COc1ccc2ncnc(Nc3cc(OC)c(OC)c(OC)c3)c2c1` came in with an IC50 of 5000 nM.
Then `COc1cc2ncnc(Cc3ccccc3)c2cc1OC`, with at most 500 nM; and `COc1cc2ncnc(Nc3ccccc3Cl)c2cc1OC`, with 50 nM; and `COc1cc2ncnc(Sc3cccc(Cl)c3)c2cc1OC`, with 100 nM.
Then `COc1cccc(Nc2ncnc3cc(OC)c(OC)cc23)c1`, with 50 nM.
The molecule `COc1cc2ncnc(Nc3cccc4ccccc34)c2cc1OC` registered a 50% inhibitory concentration (IC50) of 10 nM.
As for `COc1cccc(Sc2ncnc3cc(OC)c(OC)cc23)c1`, the IC50 is 2000 nM.
`Clc1cccc(Nc2ncnc3ccccc23)c1` registered an IC50 of 50 to 100 nM.
The molecule `COc1cc2ncnc(Nc3ccc4ccccc4c3)c2cc1OC` had an IC50 of 50 nM.
As to `COc1cc2ncnc(Nc3ccc(OC(C)C)cc3)c2cc1OC`, the IC50 came out at 5000 nM.
The molecule `COc1cc2ncnc(Nc3cc(Cl)c(Cl)c(Cl)c3)c2cc1OC` had an IC50 of 1000 nM.
Molecule `COc1cc2ncnc(N(C)c3ccccc3)c2cc1OC` had a concentration for half-maximal inhibition (IC50) of 200 nM.

Source of the values: the Kinase Knowledgebase extract (Sharma et al. 2016).
